pEC50: −log10 of the molar value.

This assay deals with T1, Sodium- and chloride-dependent glycine transporter 1 (Homo sapiens, UniProt P48067).
T1 sequence (P48067 whole entry): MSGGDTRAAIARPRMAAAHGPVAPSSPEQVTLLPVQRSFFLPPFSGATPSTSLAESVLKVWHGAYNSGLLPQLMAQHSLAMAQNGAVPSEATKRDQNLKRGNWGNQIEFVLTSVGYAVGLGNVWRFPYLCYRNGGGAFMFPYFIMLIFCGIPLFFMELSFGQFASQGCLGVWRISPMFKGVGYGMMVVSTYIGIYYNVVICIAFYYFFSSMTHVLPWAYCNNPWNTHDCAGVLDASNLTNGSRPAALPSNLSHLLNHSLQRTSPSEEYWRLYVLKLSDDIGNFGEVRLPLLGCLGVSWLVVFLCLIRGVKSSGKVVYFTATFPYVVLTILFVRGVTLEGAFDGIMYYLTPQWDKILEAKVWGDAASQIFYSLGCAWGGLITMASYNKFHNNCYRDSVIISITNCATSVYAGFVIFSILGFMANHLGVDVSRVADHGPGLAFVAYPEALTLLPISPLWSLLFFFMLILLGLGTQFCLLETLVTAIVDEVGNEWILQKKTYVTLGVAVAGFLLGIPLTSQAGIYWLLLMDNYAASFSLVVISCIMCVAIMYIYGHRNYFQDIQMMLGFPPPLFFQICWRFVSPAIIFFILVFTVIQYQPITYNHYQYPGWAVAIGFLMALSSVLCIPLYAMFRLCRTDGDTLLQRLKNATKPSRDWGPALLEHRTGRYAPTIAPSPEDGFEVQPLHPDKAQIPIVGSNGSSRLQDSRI
Description: Substrate uptake and inhibition of the Glycine Transporter-1 (GlyT1, SLC6A9) as assessed by the fluorescent FLIPR membrane potential dye in HEK-293 JumpIN-SLC6A9 cells (PubChem AID: 1794809)

For `NCC(=O)O` [GLYCINE], the pEC50 is 3.97.
